Measurements reported in patent US20080171742A1, “4-(Pyrid-2-Yl) Amino Substituted Pyrimidine as Protein Kinase Inhibitors” (AsraZeneca, priority 2005, published 2008).

Test system: murine fibroblasts (NIH3T3) over-expressing human IGF-1 receptor
Assay: Inhibition of IGF-stimulated cell proliferation (BrdU incorporation), Test (c)
Assay type: cell-based
Conditions: NIH3T3/IGFR cells, IGF-1 20 ng/ml
Experimental: The construction of murine fibroblasts (NIH3T3) over-expressing human IGF-1 receptor has been described by Lammers et al (EMBO J, 8, 1369-1375, 1989). These cells show a proliferative response to IGF-I which can be measured by BrdU incorporation into newly synthesised DNA. Compound potency was determined as causing inhibition of the IGF-stimulated proliferation in the following assay:
Compounds are initially dissolved in DMSO to 10 mM, followed by dilutions in DMEM+1% FCS+glutamine to give a range from […] in 1-0.00045% DMSO final concentration in assay well.
Exponentially growing NIH3T3/IGFR cells were harvested and seeded in complete growth medium into a flat-bottomed 96 well tissue culture grade plate (Costar 3525) at 1.2×10^4 cells per well in a volume of 100 μl.
Growth medium was carefully removed from each well using a multi-channel pipette. Wells were carefully rinsed three times with 200 μl with HBSS. 100 μl of starvation medium was added to each well and the plate was re-incubated for 24 hours.
50 μl of a 4× concentrate of test compound was added to appropriate wells. Cells were incubated for 30 minutes with compound alone before the addition of IGF. […]
The incorporation of BrdU in the cells (after a 4 h incorporation period) was assessed using the BrdU Cell Proliferation Elisa according to the manufacturer's protocol.

Q: Cc1cc(Nc2ccccn2)nc(N2CCC[C@H]2c2cc(-c3ccccn3)no2)n1 [Example 1, S-6-Methyl-2-{2-[3-(pyrid-2-yl)isoxazol-5-yl]pyrrolidin-1-yl}-4-(pyrid-2-ylamino)pyrimidine] was tested. Which IC50 did it give?
A: 310 nM

Q: How did the IC50 turn out when Cc1ccc(Nc2cc(C)nc(N3CCC[C@H]3c3cc(-c4ccccn4)no3)n2)nc1 [Example 13, S-6-Methyl-2-{2-[3-(pyrid-2-yl)isoxazol-5-yl]pyrrolidin-1-yl}-4-(5-methylpyrid-2-ylamino)pyrimidine] was run?
A: 130 nM
